Publication PMC7176092, “Development of the first in vivo GPR17 ligand through an iterative drug discovery pipeline: A novel disease-modifying strategy for multiple sclerosis” (PLoS ONE, 2020)
Values joined by “and” are separate entries in the source; they are usually repeats but may differ in a detail not shown here. Equal values may be shown once. Read-outs that look alike come from different tables or passages of the source.

Assays:
ADR2B = molecular target: T1, ADR2B (Homo sapiens, UniProt P18089); test: Binding assay ADR2B; details: 100 nM
T1 construct: Eurofins Cerep (external service)
T1 sequence (P18089 1-450): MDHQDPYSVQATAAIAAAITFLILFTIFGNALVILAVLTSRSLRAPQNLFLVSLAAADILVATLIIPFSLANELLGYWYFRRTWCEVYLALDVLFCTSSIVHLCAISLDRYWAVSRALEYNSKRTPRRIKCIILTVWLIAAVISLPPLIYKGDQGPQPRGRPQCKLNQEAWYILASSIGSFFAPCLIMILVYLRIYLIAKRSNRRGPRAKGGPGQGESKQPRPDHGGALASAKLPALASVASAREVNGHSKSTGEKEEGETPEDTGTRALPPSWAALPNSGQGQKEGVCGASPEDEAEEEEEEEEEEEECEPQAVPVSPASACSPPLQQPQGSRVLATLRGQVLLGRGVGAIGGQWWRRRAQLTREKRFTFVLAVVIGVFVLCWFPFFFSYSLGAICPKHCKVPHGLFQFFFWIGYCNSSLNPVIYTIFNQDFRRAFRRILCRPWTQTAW

APJ = molecular target: T2, APJ (Homo sapiens, UniProt P35414); test: Binding assay APJ; details: 100 nM
T2 construct: Eurofins Cerep (external service)
T2 sequence (P35414 1-380): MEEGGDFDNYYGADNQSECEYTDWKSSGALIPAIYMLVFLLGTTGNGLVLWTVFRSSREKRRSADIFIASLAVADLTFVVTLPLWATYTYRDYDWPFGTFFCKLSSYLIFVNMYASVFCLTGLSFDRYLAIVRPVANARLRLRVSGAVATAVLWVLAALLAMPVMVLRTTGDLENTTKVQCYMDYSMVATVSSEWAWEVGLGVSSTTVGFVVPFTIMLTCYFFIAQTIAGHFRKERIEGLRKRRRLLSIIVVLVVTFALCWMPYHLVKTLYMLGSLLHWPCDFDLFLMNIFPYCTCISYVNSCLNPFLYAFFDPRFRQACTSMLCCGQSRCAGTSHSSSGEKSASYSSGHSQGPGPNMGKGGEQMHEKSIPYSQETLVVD

M5 = molecular target: T3, M5 (Homo sapiens, UniProt P08912); test: Binding assay M5; details: 100 nM
T3 construct: Eurofins Cerep (external service)
T3 sequence (P08912 1-532): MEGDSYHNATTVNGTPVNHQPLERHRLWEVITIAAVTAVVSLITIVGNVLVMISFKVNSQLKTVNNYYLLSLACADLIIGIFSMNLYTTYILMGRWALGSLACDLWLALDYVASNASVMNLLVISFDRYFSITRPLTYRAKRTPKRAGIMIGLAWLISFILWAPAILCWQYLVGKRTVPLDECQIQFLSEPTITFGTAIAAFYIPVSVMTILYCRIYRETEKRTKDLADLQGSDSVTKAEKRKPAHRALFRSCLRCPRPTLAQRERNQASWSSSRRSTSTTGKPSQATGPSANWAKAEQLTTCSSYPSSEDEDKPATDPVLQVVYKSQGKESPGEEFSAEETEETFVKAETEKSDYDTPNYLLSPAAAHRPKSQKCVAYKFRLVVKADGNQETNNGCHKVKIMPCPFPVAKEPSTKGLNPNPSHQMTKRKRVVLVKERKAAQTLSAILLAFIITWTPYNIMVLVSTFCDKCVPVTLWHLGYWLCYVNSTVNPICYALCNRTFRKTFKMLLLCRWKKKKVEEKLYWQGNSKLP

CCR3 = molecular target: T4, CCR3 (Homo sapiens, UniProt P51677); test: Cellular functional assay CCR3
T4 sequence (P51677 1-355): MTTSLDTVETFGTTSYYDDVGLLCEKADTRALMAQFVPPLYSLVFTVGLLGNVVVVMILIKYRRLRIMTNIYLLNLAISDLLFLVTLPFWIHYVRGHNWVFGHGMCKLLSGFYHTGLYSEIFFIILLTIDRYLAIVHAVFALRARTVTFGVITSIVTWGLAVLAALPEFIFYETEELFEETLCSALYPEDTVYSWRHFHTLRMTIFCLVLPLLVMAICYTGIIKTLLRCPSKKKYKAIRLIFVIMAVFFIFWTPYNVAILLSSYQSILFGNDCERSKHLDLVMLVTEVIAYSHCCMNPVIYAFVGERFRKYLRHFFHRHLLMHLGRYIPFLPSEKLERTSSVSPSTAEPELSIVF

CCR4 = molecular target: T5, CCR4 (Homo sapiens, UniProt P51679); test: Cellular functional assay CCR4
T5 sequence (P51679 1-360): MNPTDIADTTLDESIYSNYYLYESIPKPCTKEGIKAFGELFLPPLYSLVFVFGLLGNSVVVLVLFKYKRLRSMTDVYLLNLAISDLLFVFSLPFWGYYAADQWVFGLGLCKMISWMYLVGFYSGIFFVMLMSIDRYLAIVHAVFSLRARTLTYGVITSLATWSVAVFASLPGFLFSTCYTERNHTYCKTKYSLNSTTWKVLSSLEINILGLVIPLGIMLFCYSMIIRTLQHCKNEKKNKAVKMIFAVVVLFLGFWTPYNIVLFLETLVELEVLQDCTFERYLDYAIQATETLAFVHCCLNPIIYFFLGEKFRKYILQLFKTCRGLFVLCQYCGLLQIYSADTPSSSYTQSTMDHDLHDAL

CCR5 = CCR5 (Homo sapiens, UniProt P51681); test: Cellular functional assay CCR5
CXCR4 = CXCR4 (Homo sapiens, UniProt P61073); test: Cellular functional assay CXCR4
[1] = mean of 2, read-out: % Of control specific binding, Mean
[2] = read-out: % Inhibition of control specific binding
[3] = single replicates 1 and 2, 0.1 µM
[4] = single replicates 1 and 2, read-out: % Of control specific binding
[5] = antagonist effect, 100 nM, single replicates 1st and 2nd, 0.1 µM
[6] = read-out: % Inhibition of control agonist response
[7] = read-out: Agonist Response (% of Control), Mean, antagonist effect, 100 nM, mean of 2
[8] = read-out: Agonist Response (% of Control), antagonist effect, 100 nM, single replicates 1st and 2nd

Chain of CCR5 (P51681 whole entry): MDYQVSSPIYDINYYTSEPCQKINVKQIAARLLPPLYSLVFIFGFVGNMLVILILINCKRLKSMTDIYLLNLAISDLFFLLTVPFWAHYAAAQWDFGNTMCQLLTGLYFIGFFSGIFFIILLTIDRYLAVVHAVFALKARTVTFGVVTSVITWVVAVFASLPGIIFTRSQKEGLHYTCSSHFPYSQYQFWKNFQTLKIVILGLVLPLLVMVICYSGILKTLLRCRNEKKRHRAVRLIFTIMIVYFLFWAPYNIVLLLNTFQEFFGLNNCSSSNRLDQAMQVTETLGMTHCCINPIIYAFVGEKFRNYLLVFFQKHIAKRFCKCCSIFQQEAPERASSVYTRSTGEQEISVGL
Chain of CXCR4 (P61073 whole entry): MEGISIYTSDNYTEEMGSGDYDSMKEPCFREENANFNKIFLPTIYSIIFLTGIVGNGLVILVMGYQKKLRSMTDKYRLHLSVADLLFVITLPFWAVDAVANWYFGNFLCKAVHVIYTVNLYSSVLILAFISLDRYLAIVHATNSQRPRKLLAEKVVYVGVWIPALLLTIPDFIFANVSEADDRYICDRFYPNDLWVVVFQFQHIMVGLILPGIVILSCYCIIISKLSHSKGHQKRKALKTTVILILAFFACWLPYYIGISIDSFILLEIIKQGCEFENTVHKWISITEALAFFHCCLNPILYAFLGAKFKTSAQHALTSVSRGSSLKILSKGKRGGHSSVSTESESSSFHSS

Cc1ccc(-c2nnc(SCC(=O)Nc3nccs3)[nH]2)cc1 [Compound 9]
remaining activity at 0.1 µM (ADR2B; [1]): 99.9% | inhibition at 0.1 µM (ADR2B; [2]): 0% | % Of control specific binding (ADR2B; [3]): 95.6% | remaining activity at 0.1 µM (ADR2B; [4]): 104% | remaining activity at 0.1 µM (APJ; [1]): 107% | inhibition at 0.1 µM (APJ; [2]): -7% | % Of control specific binding (APJ; [3]): 105.7% | remaining activity at 0.1 µM (APJ; [4]): 108% | remaining activity at 0.1 µM (M5; [1]): 97.4% | inhibition at 0.1 µM (M5; [2]): 3% | % Of control specific binding (M5; [3]): 105.1% | remaining activity at 0.1 µM (M5; [4]): 89.7% | Agonist Response (% of Control) (CCR3; [5]): 121.2% | inhibition at 0.1 µM (CCR3; [6]): -0.9% | activity at 0.1 µM (CCR3; [7]): 118% | activity at 0.1 µM (CCR3; [8]): 116% | Agonist Response (% of Control) (CCR4; [5]): 60.7% and 88.2% | inhibition at 0.1 µM (CCR4; [6]): -0.1% | activity at 0.1 µM (CCR4; [7]): 74.4% | inhibition at 0.1 µM (CCR5; CCR5, read-out: % Inhibition of control agonist response): -1.5% | activity at 0.1 µM (CCR5; CCR5, read-out: Agonist Response (% of Control), Mean, antagonist effect, 100 nM, mean of 2): 126% | Agonist Response (% of Control) (CCR5; [5]): 140.8% and 112.0% | Agonist Response (% of Control) (CXCR4; [5]): 70.8% | inhibition at 0.1 µM (CXCR4; [6]): 4.4% | activity at 0.1 µM (CXCR4; [7]): 78.2% | activity at 0.1 µM (CXCR4; [8]): 85.6%
